The results in this text go back to DBAASP.

Among the test systems are Enterococcus faecalis VR; Enterococcus faecalis; Enterococcus faecium VR; Enterococcus faecium; Staphylococcus aureus MR; Candida parapsilosis; Escherichia coli K-12; Escherichia coli UB1005; Candida albicans C627.
What all share (experiment): ≥ marks a high value that may be exact or a test limit, other limits are often not marked, values filed in µg/mL are converted to µM
Assay [1] concerns Bacillus subtilis KCTC 3068.
For assay [2], the system named is Escherichia coli KCTC 1682.
For assay [3], the system named is Pseudomonas aeruginosa KCTC 1637.
For assay [4], the system named is Salmonella typhimurium KCTC 1926.
Assay [5] concerns Staphylococcus aureus KCTC 1621.
Assay [6] relates to Staphylococcus epidermidis KCTC 1917.
In assay [7] the test system is Bacillus subtilis CMCC 63501.
For assay [8], the system named is Enterococcus faecalis ATCC 29212.
For assay [9], the system named is Escherichia coli ATCC 25922.
Assay [10] relates to Escherichia coli DH5alpha.
Assay [11] relates to Pseudomonas aeruginosa ATCC 27853.
Assay [12] deals with Pseudomonas aeruginosa PAO1.
Assay [13] has as its system Salmonella enterica subsp. enterica serovar Typhimurium ATCC 14028.
The test system of assay [14] is Salmonella typhimurium ATCC 7731.
Assay [15] relates to Staphylococcus aureus ATCC 29213.
For assay [16], the system named is Staphylococcus epidermidis ATCC 12228.
The test system of assay [17] is Bacillus subtilis ATCC 6633.
Assay [18] concerns Escherichia coli ATCC 10536.
In assay [19] the test system is Staphylococcus aureus ATCC 9144.
In assay [20] the test system is Pseudomonas aeruginosa ATCC BAA-427.
In assay [21] the test system is Staphylococcus aureus ATCC 25923.
In assay [22] the test system is Enterococcus faecium mic80.
The test system of assay [23] is Escherichia coli ESBL 63103.
Assay [24] deals with Pseudomonas aeruginosa 213.
Assay [25] concerns Pseudomonas aeruginosa H103.
Assay [26] concerns Pseudomonas aeruginosa LES400.
The subject of assay [27] is Staphylococcus aureus C623.

Values after ≈ are worked out from the molar mass of the structure shown.

The term MIC denotes the smallest concentration in the dilution series that meets the test's criterion for growth inhibition. Regarding `CC[C@H](C)[C@H](NC(=O)[C@H](CS)NC(=O)[C@H](Cc1cnc[nH]1)NC(=O)[C@H](C)NC(=O)[C@H](C)N)C(=O)N[C@@H](CCC(N)=O)C(=O)N[C@@H](CC(C)C)C(=O)NCC(=O)N[C@@H](CCCCN)C(=O)N[C@@H](CCCN=C(N)N)C(N)=O` [AAHCIQLGKR], the MIC (in assay [1]; in the assay with Enterococcus faecalis VR; against Enterococcus faecalis; in the assay on Enterococcus faecium VR; in the assay on Enterococcus faecium; in assay [2]) was 30 µM (≈ 32.9 µg/mL) in each case. In addition, the minimum inhibitory concentration (MIC) (in [3]; in [4]; in assay [5]; with Staphylococcus aureus MR; in assay [6]) was 30 µM (≈ 32.9 µg/mL) throughout.
On to `CC(C)C[C@H](NC(=O)[C@H](CS)NC(=O)[C@H](Cc1cnc[nH]1)NC(=O)[C@H](C)NC(=O)[C@H](C)N)C(=O)N[C@@H](C)C(=O)N[C@@H](CCCCN)C(=O)N[C@@H](CCCN=C(N)N)C(=O)N[C@@H](CCCCN)C(=O)N[C@@H](CCCCN)C(N)=O` [AAHCLAKRKK], for which the MIC (in [1]; against Enterococcus faecalis VR; against Enterococcus faecalis; against Enterococcus faecium VR; against Enterococcus faecium; in assay [2]) was 30 µM in each case. For the same molecule, the MIC (in [3]; in [4]; in assay [5]; in the assay with Staphylococcus aureus MR; in assay [6]) was 30 µM in each case.
In the case of `CC(C)C[C@H](NC(=O)[C@H](Cc1ccccc1)NC(=O)[C@H](CC(C)C)NC(=O)[C@H](CS)NC(=O)[C@H](Cc1cnc[nH]1)NC(=O)[C@@H](NC(=O)[C@H](C)N)[C@@H](C)O)C(=O)N[C@@H](CCCCN)C(=O)N[C@@H](CCCCN)C(=O)N[C@@H](CCCN=C(N)N)C(N)=O` [ATHCLFLKKR], the minimum inhibitory concentration (MIC) stood at 7.5 µM in assay [1]; 30 µM in the assay with Enterococcus faecalis VR; 30 µM against Enterococcus faecalis; 30 µM against Enterococcus faecium VR; 30 µM with Enterococcus faecium; 15 µM in [2]. The MIC (in assay [3]; in [4]; in assay [5]; against Staphylococcus aureus MR; in assay [6]) was 15 µM throughout.
With `CC[C@H](C)[C@H](NC(=O)[C@H](CCCN=C(N)N)NC(=O)[C@H](CCC(N)=O)NC(=O)[C@@H](NC(=O)[C@@H](NC(=O)[C@H](CCCN=C(N)N)NC(=O)[C@H](CCCCN)NC(=O)[C@@H](N)Cc1ccccc1)[C@@H](C)CC)C(C)C)C(=O)N[C@@H](CCCCN)C(=O)N[C@@H](CC(=O)O)C(=O)N[C@@H](Cc1ccccc1)C(=O)N[C@@H](CC(C)C)C(=O)N[C@@H](CCCN=C(N)N)C(N)=O` [FKRIVQRIKDFLR], the MIC in [7] is 16 µM (≈ 27.5 µg/mL); in [1], 4 µM (≈ 6.87 µg/mL); in the assay on Candida parapsilosis it was at least 116 µM; in [8] it was 32 µM (≈ 55 µg/mL); in [9] it was 16 µM (≈ 27.5 µg/mL); in assay [10], at least 116 µM. Also, the MIC against Escherichia coli K-12 was at least 40 µM; in assay [2], 16 µM (≈ 27.5 µg/mL); in the assay on Escherichia coli UB1005, 16 µM (≈ 27.5 µg/mL); in assay [11], 8 µM (≈ 13.7 µg/mL); in assay [3] it was at least 32 µM; in [12], 16 µM (≈ 27.5 µg/mL). Further, the minimal inhibitory concentration (MIC) is 32 µM (≈ 55 µg/mL) in assay [13]; 16 µM (≈ 27.5 µg/mL) in [14]; 16 µM (≈ 27.5 µg/mL) in assay [4]; 16 µM (≈ 27.5 µg/mL) in [15]; 16 µM (≈ 27.5 µg/mL) in assay [5]; 8 µM (≈ 13.7 µg/mL) in assay [16]. In addition, the MIC in assay [6] turned out to be 16 µM (≈ 27.5 µg/mL).
For the molecule `CC[C@H](C)[C@H](NC(=O)CN)C(=O)NCC(=O)N[C@@H](C)C(=O)N[C@H](C(=O)N[C@@H](CC(C)C)C(=O)N[C@@H](CCCCN)C(=O)N[C@H](C(=O)N[C@@H](C)C(=O)N[C@H](C(=O)N[C@H](C(=O)NCC(=O)N[C@@H](CC(C)C)C(=O)N1CCC[C@H]1C(=O)N[C@@H](C)C(=O)N[C@@H](CC(C)C)C(=O)N[C@H](C(=O)N[C@@H](CO)C(=O)N[C@@H](Cc1c[nH]c2ccccc12)C(=O)N[C@H](C(=O)N[C@@H](CCCCN)C(=O)N[C@@H](CCCN=C(N)N)C(=O)N[C@@H](CCCCN)C(=O)N[C@@H](CCCN=C(N)N)C(=O)N[C@@H](CCC(N)=O)C(=O)N[C@@H](CCC(N)=O)C(N)=O)[C@@H](C)CC)[C@@H](C)CC)[C@@H](C)O)[C@@H](C)O)C(C)C)C(C)C` [GIGAVLKVATTGLPALISWIKRKRQQ], the MIC was found to be 2.4 µM (≈ 6.73 µg/mL) in assay [17], 3.2 µM (≈ 8.97 µg/mL) in assay [18], 4.3 µM (≈ 12.1 µg/mL) in [10] and 3.6 µM (≈ 10.1 µg/mL) in assay [19].
`CC[C@H](C)[C@H](N)C(=O)N[C@@H](CC(C)C)C(=O)NCC(=O)N[C@@H](CCCCN)C(=O)N[C@H](C(=O)N[C@@H](Cc1c[nH]c2ccccc12)C(=O)N[C@@H](CCCCN)C(=O)NCC(=O)N[C@@H](CCCCN)C(=O)N[C@@H](CCCCN)C(=O)N[C@@H](CO)C(=O)N[C@@H](CC(C)C)C(=O)N[C@@H](Cc1ccccc1)C(N)=O)[C@@H](C)CC` [ILGKIWKGKKSLF]: the MIC in [17] worked out at 1 µM (≈ 1.52 µg/mL); in assay [18], 1 µM (≈ 1.52 µg/mL); in assay [9] it was 2 µM (≈ 3.03 µg/mL); in [20], 2 µM (≈ 3.03 µg/mL); in assay [21], 1 µM (≈ 1.52 µg/mL).
For the molecule `NCCCC[C@H](N)C(=O)N[C@@H](Cc1c[nH]c2ccccc12)C(=O)N[C@@H](Cc1c[nH]c2ccccc12)C(=O)N[C@@H](CCCN=C(N)N)C(=O)N[C@@H](Cc1c[nH]c2ccccc12)C(=O)N[C@@H](CCCN=C(N)N)C(=O)N[C@@H](CCCN=C(N)N)C(=O)N[C@@H](Cc1c[nH]c2ccccc12)C(=O)N[C@@H](Cc1c[nH]c2ccccc12)C(=O)O` [KWWRWRRWW], the MIC is 5.18 µM (≈ 8 µg/mL) against Candida albicans C627; 20.7 µM (≈ 32 µg/mL) in [22]; at least 82.8 µM in assay [23]; at least 82.8 µM in assay [24]; 20.7 µM (≈ 32 µg/mL) in assay [25]; at least 41.4 µM in assay [26]. Moreover, the MIC in assay [21] and in [27] was 5.18 µM (≈ 8 µg/mL) in each case.
As to `CC[C@H](C)[C@H](NC(=O)[C@H](Cc1c[nH]c2ccccc12)NC(=O)[C@H](Cc1c[nH]c2ccccc12)NC(=O)[C@H](CCCN=C(N)N)NC(=O)[C@H](CCCCN)NC(=O)[C@H](Cc1c[nH]c2ccccc12)NC(=O)[C@H](CC(C)C)NC(=O)[C@@H](N)CCCN=C(N)N)C(=O)N[C@@H](CCCN=C(N)N)C(=O)O` [RLWKRWWIR], the minimum inhibitory concentration (MIC) was 11.4 µM (≈ 16 µg/mL) against Candida albicans C627; at least 45.7 µM in assay [22]; at least 45.7 µM in assay [23]; at least 91.4 µM in assay [24]; at least 91.4 µM in [25]; at least 91.4 µM in [26]. Further, the MIC was 91.4 µM (≈ 128 µg/mL) in assay [21] and at least 45.7 µM in [27].
